# Measured values from patent EP0289262A2, “Omega-quaternary ammonium alkyl esters and thioesters of acidic nonsteroidal antiinflammatory drugs” (priority 1987, dated 1988).
# Values joined by “and” are separate entries in the source; they are usually repeats but may differ in a detail not shown here. Equal values may be shown once.
# Assays:
# [1] = system: Intestinal Tract of Rats; assay: Test for ability to cause gastro-intestinal erosion in rats; format: in vivo, Male Lai: COX (SD) rats
# Procedure: Male Lai: COX (SD) rats weighing 200-250 gm were acclimated for one week under standard laboratory conditions. Each animal was individually indentified and body weights were determined on the first day of the test and again at autopsy. The test materials, suspended in aqueous carboxymethyl cellulose vehicle, were administered orally once daily in a volume of 1.0ml per 100g body weight for four consecutive days. Food was withdrawn from the animals following the last dose and the animals were sacrificed 24 hours later. At necropsy, the stomach and intestines were removed and observed for lesions. […] The incidence of lesions for each dose level tested is reported.
# [2] = system: Adjuvant-Induced Arthritis in the Rat; assay: Rat adjuvant-induced arthritis assay; format: in vivo, Female Crl:CD, br rats; conditions: oral
# Procedure: Female Crl:CD, br rats weighting 160-180 gm were randomly distributed to treatment groups of 12 animals, and were given food and water ad libitum. Test materials were prepared fresh weekly as suspensions in aqueous carboxymethyl cellulose. Animals were orally dosed with volumes of 1 ml twice per day Monday through Friday, and with 2 ml once per day on Saturdays and Sundays. At time 0, rats were injected intradermally in the proximal quarter of the tail with 0.1 ml of a mineral oil suspension of heat killed and dried Mycobacterium butyricum (Difco) at a concentration of 10 mg/ml. After sacrifice, the hind paws of each animal were removed and weighed.
# [3] = 21-day oral toxicity observation in rats; format: in vivo, male Hsd:(SD)BR rats; conditions: orally twice daily for 21 consecutive days, total daily dose 100 mg/Kg
# Procedure: Five male Hsd:(SD)BR rats weighing 205-215 g were acclimated for approximately one week prior to use under standard laboratory conditions. Naproxen thiocholine ester iodide, suspended in aqueous carboxymethylcellulose vehicle was administered orally twice daily in a volume of 1.0 ml per 200 g body weight for 21 consecutive days at a total daily dose of 100 mg/Kg.
# [4] = system: Intestinal Ulceration in Rats Induced by the Subcutaneous Administration of Indomethacin; assay: Protective effect against intestinal ulceration induced by subcutaneous indomethacin; format: in vivo, Male Crl:D,br rats; conditions: indomethacin 4 mg/kg/day s.c. for four days, score 0-10, vehicle 5.8 ± 1.8
# Procedure: Male Crl:D,br rats weighing approximately 200 gm received indomethacin, 4 mg/kg, injected subcutaneously each day for four consecutive days to induce the formation of erosions and ulcers of the small intestine. Food was removed following the last dose of indomethacin and the rats were necropsied 18-24 hours later. Erosions of small intestine were scored as follows: 0 - no detectable lesions 2 - small ulcerattions (1-15) less than 1 mm 4 - small ulcerations plus 1-10 medium (2-3 mm) ulcerations 6 - predominantly medium ulceratiaons plus 2-5 severe (>4mm) ulcers without evidence of perforation 8 - many (>20) medium and severe ulcerations with evidence of perforation 10 - animals dying during assay as a consequence of intestinal perforation and septicemia.
# Agents to be tested for protective effects were administered orally in an aqueous vehicle, with one-half the daily dose being administered 4 hours prior to indomethacin injection and one half the daily dose being administered at the time of indomethacin injection.
# [5] = daily dose 5 mg/kg orally, four consecutive days, erosions graded 0-10, five rats
# [6] = daily dose 25 mg/kg orally, four consecutive days, erosions graded 0-10, five rats
# [7] = daily dose 200 mg/kg orally, four consecutive days, erosions graded 0-10, five rats
# [8] = daily dose 300 mg/kg orally, four consecutive days, erosions graded 0-10, five rats, 300 mg/kg
# [9] = daily dose 400 mg/kg orally, four consecutive days, erosions graded 0-10, five rats, 400 mg/kg
compound,measurement,setting,value
"COc1ccc2c(c1)c(CC(=O)O)c(C)n2C(=O)c1ccc(Cl)cc1 [Indomethacin, indomethacin, reference compound]",Mean Intestinal Ulcer Score ± 1Std. Dev.,[1]; [5],7.2 ± 1.9
same,Percent Inhibition of Hind Paw Weight,[2]; daily dose 2.0 mg/kg,75%
"O=C(c1ccccc1)c1ccc2n1CCC2C(=O)O (centres unmarked) [Ketorolac, ketorolac, reference compound]",Mean Intestinal Ulcer Score ± 1Std. Dev.,[1]; [5],1.9 ± 0.9
same,Mean Intestinal Ulcer Score ± 1Std. Dev.,"[1]; rat, in vivo, po, 10 mg/kg",4.8 ± 1.7
same,Mean Intestinal Ulcer Score ± 1Std. Dev.,"[1]; rat, in vivo, po, 20 mg/kg",7.4 ± 1.7
same,Percent Inhibition of Hind Paw Weight,[2]; daily dose 0.1 mg/kg,5%
same,Percent Inhibition of Hind Paw Weight,[2]; daily dose 0.5 mg/kg,14%
same,Percent Inhibition of Hind Paw Weight,[2]; daily dose 2.5 mg/kg,59%
"C[N+](C)(C)CCSC(=O)C1CCn2c(C(=O)c3ccccc3)ccc21 (centres unmarked) [Ketorolac thiocholine ester iodide, ketorolac thiocholine ester iodide]",Mean Intestinal Ulcer Score ± 1Std. Dev.,[1]; [6],2.0 ± 2.0
same,Mean Intestinal Ulcer Score ± 1Std. Dev.,"[1]; daily dose 50 mg/kg orally, four consecutive days, erosions graded 0-10, five rats",6.4 ± 0.9
same,Mean Intestinal Ulcer Score ± 1Std. Dev.,"[1]; daily dose 75 mg/kg orally, four consecutive days, erosions graded 0-10, five rats",7.2 ± 1.1
same,Percent Inhibition of Hind Paw Weight,[2]; daily dose 1.0 mg/kg,10%
same,Percent Inhibition of Hind Paw Weight,"[2]; daily dose 5.0 mg/kg, 5 mg/kg",79% and 56%
"COc1ccc2cc([C@H](C)C(=O)O)ccc2c1 [Naproxen, 2-(6′-methoxy-2′-naphthyl)propionic acid, reference compound]",Mean Intestinal Ulcer Score ± 1Std. Dev.,"[1]; daily dose 20 mg/kg orally, four consecutive days, erosions graded 0-10, five rats",1.6 ± 0.9
same,Mean Intestinal Ulcer Score ± 1Std. Dev.,[1]; [6],3.2 ± 1.1
same,Mean Intestinal Ulcer Score ± 1Std. Dev.,"[1]; daily dose 30 mg/kg orally, four consecutive days, erosions graded 0-10, five rats",6.4 ± 1.7
same,Mean Intestinal Ulcer Score ± 1Std. Dev.,"[1]; daily dose 35 mg/kg orally, four consecutive days, erosions graded 0-10, five rats",7.6 ± 0.9
same,Percent Inhibition of Hind Paw Weight,[2]; daily dose 1.4 mg/kg,22%
same,Percent Inhibition of Hind Paw Weight,[2]; daily dose 3.5 mg/kg,70%
same,Percent Inhibition of Hind Paw Weight,[2]; daily dose 7.0 mg/kg,77%
"COc1ccc2c(c1)c(CC(=O)SCC[N+](C)(C)C)c(C)n2C(=O)c1ccc(Cl)cc1 [Indomethacin thiocholine ester iodide, indomethacin thiocholine ester iodide]",Mean Intestinal Ulcer Score ± 1Std. Dev.,[1]; [6],0
same,Mean Intestinal Ulcer Score ± 1Std. Dev.,"[1]; daily dose 100 mg/kg orally, four consecutive days, erosions graded 0-10, five rats",0
same,Percent Inhibition of Hind Paw Weight,[2]; daily dose 7.0 mg/kg,15%
same,Percent Inhibition of Hind Paw Weight,[2]; daily dose 14 mg/kg,59%
"COc1ccc2cc([C@H](C)C(=O)SCC[N+](C)(C)C)ccc2c1 [Naproxen thiocholine ester iodide, NAPROXEN THIOCHOLINE ESTER IODIDE]",Mean Intestinal Ulcer Score ± 1Std. Dev.,"[1]; daily dose 150 mg/kg orally, four consecutive days, erosions graded 0-10, five rats",0
same,Mean Intestinal Ulcer Score ± 1Std. Dev.,[1]; [7],0.4 ± 0.9
same,Mean Intestinal Ulcer Score ± 1Std. Dev.,"[1]; daily dose 250 mg/kg orally, four consecutive days, erosions graded 0-10, five rats",1.6 ± 1.7
same,Mean Intestinal Ulcer Score ± 1Std. Dev.,[1]; [8],3.0 ± 1.7
same,Mean Intestinal Ulcer Score ± 1Std. Dev.,[1]; [9],7.2 ± 1.1
same,gross signs of toxicity,[3],did not produce any gross signs of toxicity
same,Intestinal Erosion Score Mean ± S.D.,[4]; oral dose 5 mg/kg/day,4.0 ± 2.4
same,Intestinal Erosion Score Mean ± S.D.,[4]; oral dose 10 mg/kg/day,2.4 ± 0.9
same,Intestinal Erosion Score Mean ± S.D.,[4]; oral dose 20 mg/kg/day,1.8 ± 2.4
same,Intestinal Erosion Score Mean ± S.D.,[4]; oral dose 50 mg/kg/day,0.8 ± 1.1
same,Percent Inhibition of Hind Paw Weight,[2]; daily dose 7.0 mg/kg,40%
same,Percent Inhibition of Hind Paw Weight,[2]; daily dose 10 mg/kg,69%
same,Percent Inhibition of Hind Paw Weight,"[2]; daily dose 14 mg/kg, 14 mg/kg",40% and 53%
same,Percent Inhibition of Hind Paw Weight,"[2]; daily dose 28 mg/kg, 28 mg/kg",51% and 75%
"COc1ccc2cc([C@H](C)C(=O)SCC[N+](C)(C)C)ccc2c1 [Naproxen thiocholine ester chloride, naproxen thiocholine ester chloride]",Mean Intestinal Ulcer Score ± 1Std. Dev.,[1]; [7],0.4 ± 0.9
same,Mean Intestinal Ulcer Score ± 1Std. Dev.,[1]; [8],1.6 ± 0.9
same,Mean Intestinal Ulcer Score ± 1Std. Dev.,[1]; [9],5.6 ± 2.2
